pIC50: −log10 of the molar value. Like-named read-outs stand apart in the source and are kept apart here.

In one experiment the test system is MOLM14 D835Y cells. As to the kind of experiment: cells. The following applies: 48 hours, Cell Titer Glo, read-out: MOLM14 D835Y IC50. The format is cell-based. Background: Cellular ATP, detected with luciferase, serves as a proxy for viable cell number.
Another experiment concerns the target T1, IRAK4 (Homo sapiens, UniProt Q9NWZ3).
T1 sequence (Q9NWZ3 1-460): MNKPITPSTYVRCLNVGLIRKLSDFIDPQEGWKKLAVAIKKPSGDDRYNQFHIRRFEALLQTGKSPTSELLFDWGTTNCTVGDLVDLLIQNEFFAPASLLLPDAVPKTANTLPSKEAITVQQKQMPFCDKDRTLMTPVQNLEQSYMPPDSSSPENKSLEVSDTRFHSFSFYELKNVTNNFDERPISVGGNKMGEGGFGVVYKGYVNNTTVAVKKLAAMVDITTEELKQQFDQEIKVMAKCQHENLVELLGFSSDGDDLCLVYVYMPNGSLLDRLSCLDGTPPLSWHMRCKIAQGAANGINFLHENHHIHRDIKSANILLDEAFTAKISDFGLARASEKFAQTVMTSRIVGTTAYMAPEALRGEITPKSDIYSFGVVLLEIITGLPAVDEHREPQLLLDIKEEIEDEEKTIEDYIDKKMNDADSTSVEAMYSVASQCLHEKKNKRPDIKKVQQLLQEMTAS
As to the kind of experiment: RBC HotSpot Kinase Assay, IRAK4. The following applies: IRAK4 IC50.

The next experiment relates to MOLM14 F691L cells. As to the kind of experiment: cells. The format is cell-based. The conditions noted are these: read-out: MOLM14 F691L IC50.
A further experiment addresses IRAK1 (Homo sapiens, UniProt P51617). As to the kind of experiment: RBC HotSpot Kinase Assay, IRAK1. The conditions noted are these: IRAK1 IC50.
In the next experiment the target is T2, FLT3 (Homo sapiens, UniProt P36888).
T2 sequence (P36888 610-943 limits assumed): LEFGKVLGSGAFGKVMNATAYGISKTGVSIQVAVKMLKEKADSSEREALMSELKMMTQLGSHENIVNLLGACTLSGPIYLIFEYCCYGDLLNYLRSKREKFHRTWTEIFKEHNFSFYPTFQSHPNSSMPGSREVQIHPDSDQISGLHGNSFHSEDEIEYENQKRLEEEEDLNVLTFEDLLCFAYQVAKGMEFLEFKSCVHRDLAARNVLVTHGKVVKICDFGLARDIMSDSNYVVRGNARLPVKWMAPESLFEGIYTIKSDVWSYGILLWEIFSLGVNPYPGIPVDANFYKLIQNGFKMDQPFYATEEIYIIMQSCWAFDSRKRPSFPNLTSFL
The experiment in a line: RBC HotSpot Kinase Assay, FLT3.

The test system of another experiment is THP1 cells. The experiment in a line: Combination drug screening, Cell Titer Glo, 10 × 10 matrix, THP1 cells. The experiment is classed as cell-based. The following applies: THP1 cells; for Excess HSA Score: 10 × 10.
For another experiment, the system named is MOLM14(D835Y) cells. The format is cell-based. The conditions noted are these: MOLM14(D835Y) cells; for Excess HSA Score: 10 × 10.
Where [1] appears, read: Homo sapiens, MOLM-14, 48 h, 48 hours, Cell Titer Glo.
Where [2] appears, read: combination with (+)-BAY-1251152.
The mark [3] stands for this setting: combination with Eprenetapopt/APR-246.
[4] abbreviates: combination with Venetoclax (ABT-199).

Sequence of IRAK1 (P51617 whole entry): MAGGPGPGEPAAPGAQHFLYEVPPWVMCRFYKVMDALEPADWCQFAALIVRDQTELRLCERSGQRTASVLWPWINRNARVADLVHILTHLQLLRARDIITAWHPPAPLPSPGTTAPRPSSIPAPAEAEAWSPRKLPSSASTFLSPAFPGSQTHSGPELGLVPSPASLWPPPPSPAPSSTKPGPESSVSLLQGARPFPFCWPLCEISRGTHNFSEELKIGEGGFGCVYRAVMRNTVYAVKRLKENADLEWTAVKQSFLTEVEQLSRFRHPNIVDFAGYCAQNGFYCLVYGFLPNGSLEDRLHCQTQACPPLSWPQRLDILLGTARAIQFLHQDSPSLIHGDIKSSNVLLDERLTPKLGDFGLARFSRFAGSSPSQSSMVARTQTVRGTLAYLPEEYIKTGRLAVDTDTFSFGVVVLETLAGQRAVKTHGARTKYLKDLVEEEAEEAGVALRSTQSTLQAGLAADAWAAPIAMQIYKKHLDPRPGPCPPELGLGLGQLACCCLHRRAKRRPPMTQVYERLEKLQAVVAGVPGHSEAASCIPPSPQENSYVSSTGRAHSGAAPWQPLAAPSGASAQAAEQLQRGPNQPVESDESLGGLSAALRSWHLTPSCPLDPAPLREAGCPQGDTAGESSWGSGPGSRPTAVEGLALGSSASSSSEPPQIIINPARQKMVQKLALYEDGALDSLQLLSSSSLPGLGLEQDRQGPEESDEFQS

As usually defined, the pIC50 is the IC50 on a negative log10 scale, so that one unit is a factor of ten. For `CC(C)Oc1ccn2c(-c3nccc(N[C@@H]4CCCNC4)n3)cnc2c1` [Compound 53, (R)-2-(7-isopropoxyimidazo[1,2-a]pyridin-3-yl)-N-(piperidin-3-yl)pyrimidin-4-amine], the pIC50 with MOLM14 D835Y cells (Homo sapiens, MOLM-14, 48 h) is 6.69; on IRAK4, 7.22; in the experiment with MOLM14 F691L cells (setting [1]), 5.66; against IRAK1 it was 5.71; at FLT3 (FLT3 IC50), 8.70.

For the compound `CC(C)Oc1ccn2c(-c3cncc(N[C@@H]4CCCNC4)n3)cnc2c1` [Compound 1, 6-(7-isopropoxyimidazo[1,2-a]pyridin-3-yl)-N-[(3R)-3-piperidyl]pyrazin-2-amine], the pIC50 was 7.43 in the experiment on MOLM14 D835Y cells (Homo sapiens, MOLM-14, 48 h); 8.70 against IRAK4; 7.14 in the experiment with MOLM14 F691L cells (setting [1]); 6.95 on IRAK1; over 9.30 at FLT3 (FLT3 IC50).

Take `CC(O)(c1cn2c(-c3cncc(N[C@H]4CNCC[C@@H]4F)n3)cnc2cn1)C(F)(F)F` (single isomer, unassigned) [Compound 78]: the pIC50 in the experiment with MOLM14 D835Y cells is 6.71; at IRAK4, over 9.30; in the experiment with MOLM14 F691L cells (48 hours, Cell Titer Glo), 6.41; against IRAK1 it was 8.15; on FLT3 (read-out: FLT3 IC50), over 9.30.

In the case of `COc1cc2ncc(-c3cncc(N[C@H]4CNC[C@@H]4F)n3)n2cc1C(C)(C)O` [Compound 19, 2-(3-(6-(((3S,4S)-4-fluoropyrrolidin-3-yl)amino)pyrazin-2-yl)-7-methoxyimidazo[1,2-a]pyridin-6-yl)propan-2-ol], the pIC50 with MOLM14 D835Y cells (Homo sapiens, MOLM-14, 48 h) is 6.96; against IRAK4, 9.10; in the experiment on MOLM14 F691L cells (setting [1]), 6.71; against IRAK1 it was 8.52; on FLT3 (FLT3 IC50) it was over 9.30.

`CC(O)(c1cn2c(-c3cncc(N[C@H]4CNC[C@@H]4F)n3)cnc2cn1)C(F)(F)F` (single isomer, unassigned) [Compound 77]: the pIC50 in the experiment on MOLM14 D835Y cells was 6.16; on IRAK4, 8.40; in the experiment with MOLM14 F691L cells (48 hours, Cell Titer Glo), 5.71; against IRAK1, 7.05; at FLT3 (FLT3 IC50) it was 8.15.

`COc1ccn2c(-c3ccnc(N[C@H]4CNCC[C@@H]4F)n3)cnc2c1` [Compound 30, N-((3S,4S)-4-fluoropiperidin-3-yl)-4-(7-methoxyimidazo[1,2-a]pyridin-3-yl)pyrimidin-2-amine]: in the experiment on MOLM14 F691L cells (Homo sapiens, MOLM-14, 48 h), the pIC50 is 7.21. The “Excess HSA Score” value is −655.1 with THP1 cells (setting [2]); −76.43 in the experiment on THP1 cells (combination with AMG-232); −13.97 in the experiment on THP1 cells (combination with AZD-5363); 389.5 in the experiment with THP1 cells (setting [3]); 59.9 with THP1 cells (combination with Ivosidenib); −90.11 in the experiment with THP1 cells (combination with Lenalidomide). Further, the “Excess HSA Score” value in the experiment with THP1 cells (combination with Palbociclib) is listed as −678.3; in the experiment with THP1 cells (combination with Prednisolone), 188.1; in the experiment on THP1 cells (combination with SNDX-5613), 1.322; with THP1 cells (combination with TNO-155), 591.3; in the experiment on THP1 cells (combination with Trametinib) it was −203.6; with THP1 cells (combination with Ulixertinib) it was −362.3. The “Excess HSA Score” value is on record as −1632 in the experiment with THP1 cells (setting [4]); −230 in the experiment with MOLM14(D835Y) cells (setting [2]); −524.3 in the experiment on MOLM14(D835Y) cells (combination with AMG-232); −738.1 with MOLM14(D835Y) cells (combination with AZD-5363); −284.6 in the experiment with MOLM14(D835Y) cells (setting [3]); −74.07 in the experiment on MOLM14(D835Y) cells (combination with Ivosidenib). Moreover, the “Excess HSA Score” value with MOLM14(D835Y) cells (combination with Lenalidomide) is 299.3; in the experiment on MOLM14(D835Y) cells (combination with Palbociclib), −448.3; with MOLM14(D835Y) cells (combination with Prednisolone), 3.447; with MOLM14(D835Y) cells (combination with SNDX-5613), −303.5; in the experiment with MOLM14(D835Y) cells (combination with TNO-155) it was −922.2; in the experiment on MOLM14(D835Y) cells (combination with Trametinib), −313.7. Also, the “Excess HSA Score” value in the experiment on MOLM14(D835Y) cells (combination with Ulixertinib) was 14.83; in the experiment on MOLM14(D835Y) cells (setting [4]) it was −1291. Also, the Comments entry with THP1 cells (combination with Ivosidenib) is on record as “Antagonistic”; in the experiment with THP1 cells (combination with SNDX-5613), “Additive”; with THP1 cells (setting [4]), “Synergistic”; with MOLM14(D835Y) cells (combination with Prednisolone), “Antagonistic”; in the experiment on MOLM14(D835Y) cells (setting [4]) it was “Synergistic”.

In the case of `CC(C)Oc1ccn2c(-c3nccc(N[C@H]4CNC[C@@H]4F)n3)cnc2c1` [Compound 52, N-((3S,4S)-4-fluoropyrrolidin-3-yl)-2-(7-isopropoxyimidazo[1,2-a]pyridin-3-yl)pyrimidin-4-amine], the pIC50 with MOLM14 D835Y cells (Homo sapiens, MOLM-14, 48 h) was 6.33; at IRAK4, 7.38; with MOLM14 F691L cells (setting [1]), 5.12; against IRAK1 it was 6.02; against FLT3 (FLT3 IC50), 8.30.

Consider `FC(F)Oc1ccn2c(-c3ccnc(N[C@@H]4CCCNC4)n3)cnc2c1` [Compound 35, (R)-4-(7-(difluoromethoxy)imidazo[1,2-a]pyridin-3-yl)-N-(piperidin-3-yl)pyrimidin-2-amine], for which the pIC50 was 7.41 in the experiment on MOLM14 D835Y cells (Homo sapiens, MOLM-14, 48 h); 7.57 against IRAK4; 6.36 in the experiment on MOLM14 F691L cells (setting [1]); 6.92 on IRAK1; over 9.30 against FLT3 (FLT3 IC50).

With `CC(O)(c1cn2c(-c3cncc(N[C@@H]4CCCNC4)n3)cnc2cn1)C(F)(F)F` (single isomer, unassigned) [Compound 73], the pIC50 in the experiment with MOLM14 D835Y cells is 6.21; against IRAK4, 7.43; in the experiment on MOLM14 F691L cells (48 hours, Cell Titer Glo), 6.01; at IRAK1, 7.04; against FLT3 (FLT3 IC50), 8.10.

As for `CC(O)(c1cn2c(-c3cncc(N[C@H]4CNC[C@@H]4F)n3)cnc2cn1)C(F)(F)F` (single isomer, unassigned) [Compound 75], the pIC50 in the experiment with MOLM14 D835Y cells (Homo sapiens, MOLM-14, 48 h) was 5.96; against IRAK4, 7.40; in the experiment with MOLM14 F691L cells (setting [1]), 5.76; against IRAK1, 6.58; on FLT3 (FLT3 IC50) it was 8.05.

Take `COc1ccn2c(-c3ccnc(N[C@@H]4CCCNC4)n3)cnc2c1` [Compound 29, (R)-4-(7-methoxyimidazo[1,2-a]pyridin-3-yl)-N-(piperidin-3-yl)pyrimidin-2-amine]: the pIC50 was 7.92 in the experiment on MOLM14 D835Y cells (Homo sapiens, MOLM-14, 48 h); over 9.30 at IRAK4; 6.96 in the experiment with MOLM14 F691L cells (setting [1]); 7.89 against IRAK1; over 9.30 against FLT3 (FLT3 IC50).

For `COc1cc2ncc(-c3cncc(N[C@@H]4CCCNC4)n3)n2cc1C(C)(C)O` [Compound 20, (R)-2-(7-methoxy-3-(6-(piperidin-3-ylamino)pyrazin-2-yl)imidazo[1,2-a]pyridin-6-yl)propan-2-ol], the pIC50 was 7.37 in the experiment on MOLM14 D835Y cells (Homo sapiens, MOLM-14, 48 h); 9.00 against IRAK4; 7.21 in the experiment with MOLM14 F691L cells (setting [1]); 8.30 on IRAK1; over 9.30 on FLT3 (FLT3 IC50).

Take `c1cc(-c2cnc3cc(OC4CC4)ccn23)nc(N[C@@H]2CCCNC2)n1` [Compound 38, (R)-4-(7-cyclopropoxyimidazo [1,2-a]pyridin-3-yl)-N-(piperidin-3-yl)pyrimidin-2-amine]: the pIC50 is 7.66 in the experiment on MOLM14 D835Y cells (Homo sapiens, MOLM-14, 48 h); 8.22 at IRAK4; 6.71 with MOLM14 F691L cells (setting [1]); 7.22 at IRAK1; over 9.30 against FLT3 (FLT3 IC50).
